These are literature values, as cited in patent US6379705B1, “Stable multi-unitary pharmaceutical preparations containing substituted benzimidazoles” (Laboratorio Mendifar-Produtos Farmaceuticos, S.A., priority 1999, dated 2002).

In the case of `COc1ccc2[nH]c([S+]([O-])Cc3ncc(C)c(OC)c3C)nc2c1` (centres unmarked) [omeprazole], the “pH of maximum stability of solutions” value (omeprazole solutions) is recorded as 11. Where the note is “pHs lower than 7.8”, the degradation in solution result was “very quickly”.
